Test [1] concerns the target T1, p38alpha (Homo sapiens, UniProt Q16539).
T1 construct: purchased Invitrogen PV3304
The test can be described thus: P38Alpha enzyme inhibition assay (Alphascreen kinase activity assay). The format is biochemical. The note with it: 100 pM p38alpha, 250 μM ATP, 2 hours pre-incubation at 25° C., read-out: p38α inhibition (IC50 values). Summed up: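 p38α (100 pM) with ATF-2 fusion protein substrate (0.3 µg/ml) in pH 7.5 HEPES/MgCl2 buffer, 1% DMSO, preincubated 2 h at 25°C with compound. Reaction started with 250 µM ATP, ran 1 h at 25°C, then stopped with EDTA. Phospho-ATF2 antibody detected by AlphaScreen luminescence; IC50 from concentration-response curves.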
A general note: In Alpha technology, singlet oxygen from a donor bead excites a nearby acceptor bead.

Test [2] has as its system LPS-stimulated TNFα release from PBMCs. The test can be described thus: LPS-stimulated PBMC TNFα release assay. It counts as cell-based. The note with it: inhibition of TNFα release, human PBMCs, LPS 10 ng/ml, 18 h, ELISA, read-out: p38α inhibition (IC50 values). As to the method:
LPS-Stimulated PBMC TNFα Release Assay.
Peripheral Blood Mononuclear Cells (PBMCs) were isolated from healthy human volunteer blood using a standard density gradient centrifugation technique. Citrated blood was placed onto Histopaque™ and centrifuged. The PBMCs were removed from the density gradient interface and washed in phosphate buffered saline (PBS). The PBMCs were suspended in RPMI 1640 medium (without serum), dispensed into a 96-well plate and incubated at 37° C. for 3 h in a humidified incubator. After incubation, the medium was replaced (with medium containing 1% foetal bovine serum) and the plate incubated at 37° C., for 1 h, in the presence of test compound or the appropriate vehicle. LPS (10 ng/ml), or an appropriate vehicle control, was then added to the cells and the plate returned to the incubator for 18 h. Cell-free supernatants were removed and assayed for TNFα levels using an ELISA kit from R&D Systems.
A dose response curve to each test compound was performed and the effect of compound in each experiment was expressed as a percentage inhibition of the control TNFα release. Dose response curves were plotted and compound potency (IC50) was determined. Compounds were tested in at least three separate experiments.
A general note: An ELISA detects its analyte on a solid surface through an enzyme-linked reagent.

T1 sequence (Q16539 whole entry): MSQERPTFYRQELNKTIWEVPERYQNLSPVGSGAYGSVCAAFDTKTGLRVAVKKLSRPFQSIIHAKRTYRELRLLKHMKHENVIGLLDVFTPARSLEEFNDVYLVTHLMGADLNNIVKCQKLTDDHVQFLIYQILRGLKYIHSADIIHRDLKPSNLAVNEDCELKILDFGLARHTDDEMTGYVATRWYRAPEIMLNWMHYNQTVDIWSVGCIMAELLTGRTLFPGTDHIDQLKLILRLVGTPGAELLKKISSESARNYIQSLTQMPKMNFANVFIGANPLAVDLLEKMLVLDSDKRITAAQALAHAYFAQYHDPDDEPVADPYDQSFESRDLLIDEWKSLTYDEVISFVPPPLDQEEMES

The IC50 is the concentration that gives 50% inhibition. As for `Cc1ccc(-n2nc(C(C)(C)C)cc2NC(=O)N[C@H]2CC[C@@H](Oc3ccc4nnc(CN5CCNCC5)n4c3)c3ccccc32)cc1` [Example 7, 1-(5-tert-Butyl-2-p-tolyl-2H-pyrazol-3-yl)-3-[(1S,4R)-4-(3-piperazin-1-ylmethyl-[1,2,4]triazolo[4,3-a]pyridin-6-yloxy)-1,2,3,4-tetrahydro-naphthalen-1-yl]-urea], the IC50 in test [1] was less than 10 nM; in test [2], 100 to 1000 nM.

Regarding `Cc1ccc(-n2nc(C(C)(C)C)cc2NC(=O)N[C@H]2CC[C@@H](Oc3ccc4nnc(NC(C)C)n4c3)c3ccccc32)cc1` [Example 8, 1-(5-tert-Butyl-2-p-tolyl-2H-pyrazol-3-yl)-3-[(1S,4R)-4-(3-isopropylamino-[1,2,4]triazolo[4,3-a]pyridin-6-yloxy)-1,2,3,4-tetrahydro-naphthalen-1-yl]-urea], the IC50 in test [1] and in test [2] was less than 10 nM throughout.

As for `Cc1ccc(-n2nc(C(C)(C)C)cc2NC(=O)N[C@H]2CC[C@@H](Oc3ccc(C#N)nc3)c3ccccc32)cc1` [Example 9, 1-(5-tert-Butyl-2-p-tolyl-2H-pyrazol-3-yl)-3-[(1S,4R)-4-(6-cyano-pyridin-3-yloxy)-1,2,3,4-tetrahydro-naphthalen-1-yl]-urea], the results for the IC50 in test [1] and in test [2] were less than 10 nM and 100 to 1000 nM, respectively.

For `COCC(=O)Nc1cc(O[C@H]2CC[C@H](NC(=O)Nc3cc(C(C)(C)C)nn3-c3ccc(C)cc3)c3ccccc32)ccn1` [Example 10, N-(4-{(1S,4S)-4-[3-(5-tert-Butyl-2-p-tolyl-2H-pyrazol-3-yl)-ureido]-1,2,3,4-tetrahydro-naphthalen-1-yloxy}-pyridin-2-yl)-2-methoxy-acetamide], the IC50 in test [1] and in test [2] was less than 10 nM in each case.

As for `Cc1ccc(-n2nc(C(C)(C)C)cc2NC(=O)N[C@H]2CC[C@@H](Oc3ccc4cnn(CCO)c4c3)c3ccccc32)cc1` [Example 11, 1-(5-tert-Butyl-2-p-tolyl-2H-pyrazol-3-yl)-3-{(1S,4R)-4-[1-(2-hydroxy-ethyl)-1H-indazol-6-yloxy]-1,2,3,4-tetrahydro-naphthalen-1-yl}-urea], the results for the IC50 in test [1] and in test [2] were less than 10 nM and 10 to 100 nM, respectively.

Consider `Cc1ccc(-n2nc(C(C)(C)C)cc2NC(=O)N[C@H]2CC[C@@H](Oc3ccc4nnc([C@H]5CCCN5)n4c3)c3ccccc32)cc1` [Example 12, 1-(5-tert-Butyl-2-p-tolyl-2H-pyrazol-3-yl)-3-[(1S,4R)-4-((R)-3-pyrrolidin-2-yl-[1,2,4]triazolo[4,3-a]pyridin-6-yloxy)-1,2,3,4-tetrahydro-naphthalen-1-yl]-urea], for which the IC50 in test [1] and in test [2] was less than 10 nM throughout.

For the compound `COCC(=O)Nc1cc(O[C@@H]2CC[C@H](NC(=O)Nc3cc(C(C)(C)C)nn3-c3ccc(C)cc3)c3ccccc32)ccn1` [Example 13, N-(4-{(1R,4S)-4-[3-(5-tert-Butyl-2-p-tolyl-2H-pyrazol-3-yl)-ureido]-1,2,3,4-tetrahydro-naphthalen-1-yloxy}-pyridin-2-yl)-2-methoxy-acetamide], the IC50 in test [1] and in test [2] was less than 10 nM each time.

As to `Cc1ccc(-n2nc(C(C)(C)C)cc2NC(=O)N[C@H]2CC[C@@H](Oc3ccc4nnc(-c5ccc(CN6CCOCC6)cc5)n4c3)c3ccccc32)cc1` [Example 18, 1-(5-tert-Butyl-2-p-tolyl-2H-pyrazol-3-yl)-3-{(1S,4R)-4-[3-(4-morpholin-4-ylmethyl-phenyl)-[1,2,4]triazolo[4,3-a]pyridin-6-yloxy]-1,2,3,4-tetrahydro-naphthalen-1-yl]-urea], the 50% inhibitory concentration (IC50) in test [1] and in test [2] was less than 10 nM throughout.

In the case of `Cc1ccc(-n2nc(C(C)(C)C)cc2NC(=O)N[C@H]2CC[C@@H](Oc3ccc4nnc(-c5cccc(CN6CCOCC6)c5)n4c3)c3ccccc32)cc1` [Example 19, 1-(5-tert-Butyl-2-p-tolyl-2H-pyrazol-3-yl)-3-{(1S,4R)-4-[3-(3-morpholin-4-ylmethyl-phenyl)-[1,2,4]triazolo[4,3-a]pyridin-6-yloxy]-1,2,3,4-tetrahydro-naphthalen-1-yl}-urea], the IC50 in test [1] and in test [2] was less than 10 nM in each case.

For the compound `Cc1ccc(-n2nc(C(C)(C)C)cc2NC(=O)N[C@H]2CC[C@@H](Oc3ccc4nnc(-c5ccccc5CN5CCOCC5)n4c3)c3ccccc32)cc1` [Example 20, 1-(5-tert-Butyl-2-p-tolyl-2H-pyrazol-3-yl)-3-{(1S,4R)-4-[3-(2-morpholin-4-ylmethyl-phenyl)-[1,2,4]triazolo[4,3-a]pyridin-6-yloxy]-1,2,3,4-tetrahydro-naphthalen-1-yl}-urea], the IC50 in test [1] and in test [2] was less than 10 nM in each case.

In the case of `Cc1ccc(-n2nc(C(C)(C)C)cc2NC(=O)N[C@H]2CC[C@@H](Oc3ccc(CN4CCOCC4)nc3)c3ccccc32)cc1` [Example 21, 1-(5-tert-Butyl-2-p-tolyl-2H-pyrazol-3-yl)-3-[(1S,4R)-4-(6-morpholin-4-ylmethyl-pyridin-3-yloxy)-1,2,3,4-tetrahydro-naphthalen-1-yl]-urea], the IC50 in test [1] and in test [2] was 10 to 100 nM in each case.

With `Cc1ccc(-n2nc(C(C)(C)C)cc2NC(=O)N[C@H]2CC[C@@H](Oc3ccc4nnc(CC5CCN(C)CC5)n4c3)c3ccccc32)cc1` [Example 22, 1-(5-tert-Butyl-2-p-tolyl-2H-pyrazol-3-yl)-3-{(1S,4R)-4-[3-(1-methyl-piperidin-4-ylmethyl)-[1,2,4]triazolo[4,3-a]pyridin-6-yloxy]-1,2,3,4-tetrahydro-naphthalen-1-yl}-urea], the values for the IC50 in test [1] and in test [2] were less than 10 nM and 100 to 1000 nM, respectively.

For `Cc1ccc(-n2nc(C(C)(C)C)cc2NC(=O)N[C@H]2CC[C@@H](Oc3ccc4nnc(CC5CCN(CC(F)F)CC5)n4c3)c3ccccc32)cc1` [Example 23, 1-(5-tert-Butyl-2-p-tolyl-2H-pyrazol-3-yl)-3-((1S,4R)-4-{3-[1-(2,2-difluoro-ethyl)-piperidin-4-ylmethyl]-[1,2,4]triazolo[4,3-a]pyridin-6-yloxy}-1,2,3,4-tetrahydro-naphthalen-1-yl)-urea], the IC50 in test [1] and in test [2] was less than 10 nM each time.

As to `Cc1ccc(-n2nc(C(C)(C)C)cc2NC(=O)N[C@H]2CC[C@@H](Oc3ccc4nnc(N5CCC(O)CC5)n4c3)c3ccccc32)cc1` [Example 24, 1-(5-tert-Butyl-2-p-tolyl-2H-pyrazol-3-yl)-3-[(1S,4R)-4-[3-(4-hydroxypiperidin-1-yl)-[1,2,4]triazolo[4,3-a]pyridine-6-yloxy]-1,2,3,4-tetrahydro-naphthalen-1-yl]-urea], the IC50 in test [1] and in test [2] was less than 10 nM each time.

Regarding `Cc1ccc(-n2nc(C(C)(C)C)cc2NC(=O)N[C@H]2CC[C@@H](Oc3ccc4nnc(N(C)CCO)n4c3)c3ccccc32)cc1` [Example 25, 1-(5-tert-Butyl-2-p-tolyl-2H-pyrazol-3-yl)-3-[(1S,4R)-4-{3-[(2-hydroxy-ethyl)-methyl-amino]-[1,2,4]triazolo[4,3-a]pyridine-6-yloxy]-1,2,3,4-tetrahydro-naphthalen-1-yl]-urea], the IC50 in test [1] and in test [2] was less than 10 nM in each case.

In the case of `Cc1ccc(-n2nc(C(C)(C)C)cc2NC(=O)N[C@H]2CC[C@@H](Oc3ccc4nnc(N5CC[C@H](O)C5)n4c3)c3ccccc32)cc1` [Example 26, 1-(5-tert-Butyl-2-p-tolyl-2H-pyrazol-3-yl)-3-{(1S,4R)-4-[3-((S)-3-hydroxy-pyrrolidin-1-yl)-[1,2,4]triazolo[4,3-a]pyridin-6-yloxy]-1,2,3,4-tetrahydro-naphthalen-1-yl}-urea], the IC50 in test [1] and in test [2] was less than 10 nM in each case.

As to `Cc1ccc(-n2nc(C(C)(C)C)cc2NC(=O)N[C@H]2CC[C@@H](Oc3ccc4nnc(N5CCC[C@@H]5CO)n4c3)c3ccccc32)cc1` [Example 27, 1-(5-tert-Butyl-2-p-tolyl-2H-pyrazol-3-yl)-3-{(1S,4R)-4-[3-((R)-2-hydroxymethyl-pyrrolidin-1-yl)-[1,2,4]triazolo[4,3-a]pyridin-6-yloxy]-1,2,3,4-tetrahydro-naphthalen-1-yl}-urea], the IC50 in test [1] and in test [2] was less than 10 nM throughout.

As to `Cc1ccc(-n2nc(C(C)(C)C)cc2NC(=O)N[C@H]2CC[C@@H](Oc3ccc4nnc(N5CCC[C@H]5CO)n4c3)c3ccccc32)cc1` [Example 28, 1-(5-tert-Butyl-2-p-tolyl-2H-pyrazol-3-yl)-3-{(1S,4R)-4-[3-((S)-2-hydroxymethyl-pyrrolidin-1-yl)-[1,2,4]triazolo[4,3-a]pyridin-6-yloxy]-1,2,3,4-tetrahydro-naphthalen-1-yl}-urea], the IC50 in test [1] and in test [2] was less than 10 nM in each case.

In the case of `CC(C)(C)c1cc(NC(=O)N[C@H]2CC[C@@H](Oc3ccc4nnc(N5CCCCC5)n4c3)c3ccccc32)n(-c2cccc(CO)c2)n1` [Example 29, 1-[5-tert-Butyl-2-(3-hydroxymethyl-phenyl)-2H-pyrazol-3-yl]-3-[(1S,4R)-4-(3-piperidin-1-yl-[1,2,4]triazolo[4,3-a]pyridin-6-yloxy)-1,2,3,4-tetrahydro-naphthalen-1-yl]-urea], the IC50 in test [1] and in test [2] was less than 10 nM in each case.
